Data: PubChem BioAssay (NCI)
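Exposure lasted 48 hours, with cells grown in 96-well plates and compounds tested at five concentrations. At the GI50, growth is halved. TGI is the concentration that stops growth completely.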

Columns and labels:
Experiment in all cases: NCI-60 cell line screen, 48 h
SK-OV-3 ovarian = test system: SK-OV-3 ovarian
HCT-15 colon = test system: HCT-15 colon
SK-MEL-5 melanoma = test system: SK-MEL-5 melanoma
SR leukemia = test system: SR leukemia
UO-31 renal = test system: UO-31 renal
RXF 393 renal = test system: RXF 393 renal
SNB-19 CNS = test system: SNB-19 CNS
SNB-75 CNS = test system: SNB-75 CNS
NCI-H460 lung = test system: NCI-H460 lung
HCC-2998 colon = test system: HCC-2998 colon
NCI-H522 lung = test system: NCI-H522 lung
UACC-62 melanoma = test system: UACC-62 melanoma
K-562 leukemia = test system: K-562 leukemia
MALME-3M melanoma = test system: MALME-3M melanoma
RPMI-8226 leukemia = test system: RPMI-8226 leukemia
MOLT-4 leukemia = test system: MOLT-4 leukemia
SW-620 colon = test system: SW-620 colon
ACHN renal = test system: ACHN renal
HOP-92 NSCLC = test system: HOP-92 NSCLC
SK-MEL-2 melanoma = test system: SK-MEL-2 melanoma
IGROV1 ovarian = test system: IGROV1 ovarian
OVCAR-8 ovarian = test system: OVCAR-8 ovarian
NCI-H23 lung = test system: NCI-H23 lung
LOX IMVI melanoma = test system: LOX IMVI melanoma
NCI-H226 lung = test system: NCI-H226 lung
EKVX NSCLC = test system: EKVX NSCLC
UACC-257 melanoma = test system: UACC-257 melanoma
HT29 colon = test system: HT29 colon
OVCAR-3 ovarian = test system: OVCAR-3 ovarian
HL-60(TB) leukemia = test system: HL-60(TB) leukemia
HCT-116 colon = test system: HCT-116 colon
KM12 colon = test system: KM12 colon
SN12C renal = test system: SN12C renal
COLO 205 colon = test system: COLO 205 colon
M14 melanoma = test system: M14 melanoma
TK-10 renal = test system: TK-10 renal
SF-295 CNS = test system: SF-295 CNS
SF-539 CNS = test system: SF-539 CNS
A549 NSCLC = test system: A549 NSCLC
KM20L2 colon = test system: KM20L2 colon
OVCAR-5 ovarian = test system: OVCAR-5 ovarian
CCRF-CEM leukemia = test system: CCRF-CEM leukemia
SF-268 CNS = test system: SF-268 CNS
786-0 renal = test system: 786-0 renal
HOP-62 NSCLC = test system: HOP-62 NSCLC
SK-MEL-28 melanoma = test system: SK-MEL-28 melanoma
LXFL 529 NSCLC = test system: LXFL 529 NSCLC
SNB-78 CNS = test system: SNB-78 CNS
CAKI-1 renal = test system: CAKI-1 renal
U251 CNS = test system: U251 CNS
DMS 273 small cell lung = test system: DMS 273 small cell lung
OVCAR-4 ovarian = test system: OVCAR-4 ovarian
A498 renal = test system: A498 renal
XF 498 CNS = test system: XF 498 CNS
DLD-1 colon = test system: DLD-1 colon

In the case of `O=C(N/N=C/c1cc(Cl)cc(Cl)c1[OH2+])c1ccncc1.O=S(=O)([O-])[O-].[Fe+2]`, the TGI (SK-OV-3 ovarian) is reported as > 100 µM, the TGI (HCT-15 colon) is reported as 35.2 µM and the TGI (SK-MEL-5 melanoma) is reported as > 100 µM. It also gave a TGI (SR leukemia) of 54.6 µM, a TGI (UO-31 renal) of 31.1 µM and a TGI (RXF 393 renal) of 82.1 µM. For the same compound, the TGI (SNB-19 CNS) was > 100 µM, the TGI (SNB-75 CNS) was > 100 µM and the TGI (NCI-H460 lung) was 22.4 µM. The TGI (HCC-2998 colon) was > 100 µM, the TGI (NCI-H522 lung) was 7.44 µM and the TGI (UACC-62 melanoma) was 41 µM. For the same compound, the TGI (K-562 leukemia) was 51.4 µM, the TGI (MALME-3M melanoma) was 29.3 µM and the TGI (RPMI-8226 leukemia) was 5.98 µM. The TGI (MOLT-4 leukemia) was 40 µM, the TGI (SW-620 colon) was > 100 µM and the TGI (ACHN renal) was 28.1 µM. It also gave a GI50 (HOP-92 NSCLC) of 3.71 µM, a TGI (HOP-92 NSCLC) of 9.66 µM and a GI50 (SK-MEL-2 melanoma) of 82.9 µM. The TGI (SK-MEL-2 melanoma) was 94.9 µM, the TGI (IGROV1 ovarian) was 15.4 µM and the TGI (OVCAR-8 ovarian) was > 100 µM. The TGI (NCI-H23 lung) was 51.3 µM, the TGI (LOX IMVI melanoma) was 0.332 µM and the TGI (NCI-H226 lung) was 41.9 µM. The TGI (EKVX NSCLC) was 29 µM, the TGI (UACC-257 melanoma) was 41.7 µM and the TGI (HT29 colon) was 28.6 µM. It also gave a TGI (OVCAR-3 ovarian) of 53.8 µM, a TGI (HL-60(TB) leukemia) of 2.09 µM and a TGI (HCT-116 colon) of 29.6 µM. The TGI (KM12 colon) was 29.4 µM, the TGI (SN12C renal) was 79.3 µM and the TGI (COLO 205 colon) was 40.5 µM. The TGI (M14 melanoma) was 41.1 µM, the TGI (TK-10 renal) was 56 µM and the TGI (SF-295 CNS) was 35.3 µM. For the same compound, the TGI (SF-539 CNS) was 36.4 µM, the TGI (A549 NSCLC) was 53.9 µM and the TGI (KM20L2 colon) was 36.3 µM. For the same compound, the TGI (OVCAR-5 ovarian) was 49.8 µM, the TGI (CCRF-CEM leukemia) was 15.8 µM and the TGI (SF-268 CNS) was > 100 µM. The TGI (786-0 renal) was 53.9 µM, the TGI (HOP-62 NSCLC) was 34.9 µM and the TGI (SK-MEL-28 melanoma) was > 100 µM.

With `Cc1cc(=O)n2c(cc3cccccc32)n1` the TGI (HCT-15 colon) was > 100 µM, the TGI (LXFL 529 NSCLC) was > 100 µM and the TGI (SR leukemia) was > 100 µM. For the same compound, the TGI (UO-31 renal) was > 100 µM, the TGI (RXF 393 renal) was > 100 µM and the TGI (SNB-19 CNS) was > 100 µM. The TGI (SNB-75 CNS) was > 100 µM, the TGI (NCI-H460 lung) was > 100 µM and the TGI (HCC-2998 colon) was > 100 µM. The TGI (SNB-78 CNS) was > 100 µM, the TGI (NCI-H522 lung) was > 100 µM and the TGI (UACC-62 melanoma) was > 100 µM. The TGI (K-562 leukemia) was > 100 µM, the TGI (RPMI-8226 leukemia) was > 100 µM and the TGI (MOLT-4 leukemia) was > 100 µM. The TGI (CAKI-1 renal) was > 100 µM, the TGI (SW-620 colon) was > 100 µM and the TGI (ACHN renal) was > 100 µM. The TGI (SK-MEL-2 melanoma) was > 100 µM, the TGI (IGROV1 ovarian) was > 100 µM and the TGI (OVCAR-8 ovarian) was > 100 µM. For the same compound, the TGI (NCI-H23 lung) was > 100 µM, the TGI (LOX IMVI melanoma) was > 100 µM and the TGI (NCI-H226 lung) was > 100 µM. For the same compound, the TGI (EKVX NSCLC) was > 100 µM, the TGI (UACC-257 melanoma) was > 100 µM and the TGI (HT29 colon) was > 100 µM. The TGI (OVCAR-3 ovarian) was > 100 µM, the TGI (HL-60(TB) leukemia) was > 100 µM and the TGI (U251 CNS) was > 100 µM. The TGI (KM12 colon) was > 100 µM, the TGI (SN12C renal) was > 100 µM and the TGI (COLO 205 colon) was > 100 µM. For the same compound, the TGI (M14 melanoma) was > 100 µM, the TGI (TK-10 renal) was > 100 µM and the TGI (SF-295 CNS) was > 100 µM. For the same compound, the TGI (DMS 273 small cell lung) was > 100 µM, the TGI (SF-539 CNS) was > 100 µM and the TGI (A549 NSCLC) was > 100 µM. For the same compound, the TGI (OVCAR-4 ovarian) was > 100 µM, the TGI (KM20L2 colon) was > 100 µM and the TGI (OVCAR-5 ovarian) was > 100 µM. For the same compound, the TGI (CCRF-CEM leukemia) was > 100 µM, the TGI (A498 renal) was > 100 µM and the TGI (SF-268 CNS) was > 100 µM. The TGI (786-0 renal) was > 100 µM, the TGI (HOP-62 NSCLC) was > 100 µM and the TGI (SK-MEL-28 melanoma) was > 100 µM.

In the case of `O=C(CO)CC(=O)C(=O)Nc1cccc(C(F)(F)F)c1`, the TGI (SK-OV-3 ovarian) is reported as > 100 µM, the TGI (HCT-15 colon) is reported as > 100 µM and the TGI (LXFL 529 NSCLC) is reported as > 100 µM. For the same compound, the TGI (SR leukemia) was > 100 µM, the TGI (UO-31 renal) was > 100 µM and the TGI (SNB-19 CNS) was > 100 µM. For the same compound, the TGI (SNB-75 CNS) was > 100 µM, the TGI (NCI-H460 lung) was > 100 µM and the TGI (HCC-2998 colon) was > 100 µM. For the same compound, the TGI (NCI-H522 lung) was > 100 µM, the TGI (UACC-62 melanoma) was > 100 µM and the TGI (K-562 leukemia) was > 100 µM. For the same compound, the TGI (MALME-3M melanoma) was > 100 µM, the TGI (RPMI-8226 leukemia) was > 100 µM and the TGI (MOLT-4 leukemia) was > 100 µM. The TGI (CAKI-1 renal) was > 100 µM, the TGI (SW-620 colon) was > 100 µM and the TGI (ACHN renal) was > 100 µM. For the same compound, the TGI (HOP-92 NSCLC) was > 100 µM, the TGI (SK-MEL-2 melanoma) was > 100 µM and the TGI (IGROV1 ovarian) was > 100 µM. The TGI (OVCAR-8 ovarian) was > 100 µM, the TGI (NCI-H23 lung) was > 100 µM and the TGI (LOX IMVI melanoma) was > 100 µM. The TGI (NCI-H226 lung) was > 100 µM, the TGI (UACC-257 melanoma) was > 100 µM and the TGI (HT29 colon) was > 100 µM. The TGI (OVCAR-3 ovarian) was > 100 µM, the TGI (HL-60(TB) leukemia) was > 100 µM and the TGI (HCT-116 colon) was > 100 µM. The TGI (KM12 colon) was > 100 µM, the TGI (SN12C renal) was > 100 µM and the TGI (COLO 205 colon) was > 100 µM. The TGI (M14 melanoma) was > 100 µM, the TGI (TK-10 renal) was > 100 µM and the TGI (SF-295 CNS) was > 100 µM. The TGI (DMS 273 small cell lung) was > 100 µM, the TGI (SF-539 CNS) was > 100 µM and the TGI (A549 NSCLC) was > 100 µM. The TGI (OVCAR-4 ovarian) was > 100 µM, the TGI (KM20L2 colon) was > 100 µM and the TGI (OVCAR-5 ovarian) was > 100 µM. For the same compound, the TGI (SF-268 CNS) was > 100 µM, the TGI (786-0 renal) was > 100 µM and the TGI (HOP-62 NSCLC) was > 100 µM. For the same compound, the TGI (XF 498 CNS) was > 100 µM, the TGI (SK-MEL-28 melanoma) was > 100 µM and the TGI (DLD-1 colon) was > 100 µM.
